Measurements as given in patent publication US5770593A, “Method of determining a pharmaceutical combination preparations for use in anti-neoplastic therapy” (Boehringer Mannheim GmbH, priority 1988, dated 1998).
Read-outs that look alike come from different tables or passages of the source.

Key:
Walker carcinoma cells = assay: Inhibition of multiplication of Walker cells (cell proliferation), single active material or combination, Chou and Talalay analysis; assay type: cell-based, rat
Experimental: Dose-action curves for individual active materials or active material combinations were obtained by the addition of corresponding active materials to a suspension of Walker cells (10^5 cells/ml.). After an incubation time of 48 hours, the cells were counted with the help of an electronic counter (Coulter Electronics, Luton, U.K.). The multiplication of the cells (M) was calculated according to the following formula:
in which C stands for the untreated control cells, T signifies the number of treated cells and the indices 0 and t indicate the number of the cells at the time point 0 and after 48 h.
The data used for the calculation originated from at least three different experiments.

protein kinase C = assay: Inhibition of protein kinase C (PK-C): in vitro method, 32P incorporation into H1 histone; assay type: biochemical, rat
Experimental: b) Inhibition of protein kinase C (PK-C): in vitro method.
However, to the extracts was additionally added 1 mM phenylmethanesulphonyl chloride, 20 μg./ml. leupeptin and 2 μg./ml. aprotinin. […] 1,2-s,n-diolein. The reaction time was 10 minutes at 32° C. The enzyme reaction was stopped by the addition of 1 ml. 20% trichloroacetic acid (w/v). The protein was precipitated out on Whatman GF/F filter paper and counted with the help of a liquid scintillation counter.
Quercetin was solubilised in dimethyl sulphoxide (DMSO). For the batch mixing, the solution in DMSO was made up to a DMSO end concentration of 1%. An equivalent amount of pure DMSO was added to the control groups. The influence of quercetin on the cell multiplication was investigated by the addition of the active material in DMSO to the culture medium up to an end concentration of 0.1%. The cells were cultured in the presence of the active material for 48 hours. The control group only received pure DMSO.

[1] = test system: Meth A-fibrosarcoma cells; assay: [3H]-Thymidine incorporation, inhibition of tumour cell proliferation; assay type: cell-based; settings: Table 2; ilmofosin alone; read-out: IC50, inhibition of tumour cell proliferation, single active material
Experimental: b) [3H]-Thymidine incorporation.
The cytostatic or cytotoxic effect of the active materials or active material combinations on Meth A-fibrosarcoma cells was investigated in vitro on the basis of the reduced incorporation of [3H]-thymidine. The cells were suspended in DMEM, 10% FCS, 50 μM 2-mercaptoethanol, 100 U/ml. penicillin and 100 μg./ml. streptomycin up to an end concentration of 5×10^4 /ml. in the absence of the active materials. The active materials were added to the cells in an end volume of 20 μl. Per concentration, 6 cultures of 0.2 ml. were used and incubated in microtitre plates in a moist atmosphere. The cultures were pulsed for 3 hours with 1 μCi […] [methyl-^3 H]-thymidine(specific activity 5 Ci/mmol). The samples were subsequently collected and washed several times. The filter plates used were dried and transferred to scintillation test tubes. The radio-active incorporation was measured by the addition of Rotiscint.
The IC50 values for a combination of ilmofosin with CDDP or doxorubicin were determined in the manner described above in Example 7b).

[2] = Rattus norvegicus, 48 h; read-out: IC50 cell proliferation in combination with cis-DDP
[3] = Table 1, 50% inhibition of the protein kinase C, read-out: inhibition of the protein kinase C IC50
[4] = protein kinase C enriched from Walker cells, 10 minutes at 32° C., pH 7.4, read-out: IC50, inhibition of protein kinase C (Examples 2-6)
[5] = combination of the inhibitor with cis-DDP, 48 hours; method of Chou and Talalay
[6] = Rattus norvegicus, 48 h, read-out: IC50 cell proliferation
[7] = Rattus norvegicus, 48 h, read-out: IC50 cell proliferation in combination with cis-DDP

| Compound | IC50 (Walker carcinoma cells; [2]) [µM] | IC50 (protein kinase C; [3]) [µM] | IC50 (protein kinase C; [4]) [µM] | nature of the activity (Walker carcinoma cells; [5]) | IC50 (Walker carcinoma cells; [6]) [µM] | IC50 (Walker carcinoma cells; [7]) [µM] | further results |
| --- | --- | --- | --- | --- | --- | --- | --- |
| CCCCCCCCCCCCCCCCCCOCC(COP(=O)([O-])OCC[N+](C)(C)C)OC (stereo not drawn) [ET-18-OCH3, 4-hydroxy-7-methoxy-N,N,N-trimethyl-3,5,9-trioxa-4-phosphaheptacosan-1-aminium 4-oxide] | 1.7 | – | – | – | – | – | IC50 (Walker carcinoma cells; Rattus norvegicus; Table 1; single active material, 48 hours; read-out: IC50 cell proliferation): 5.8 µM |
| N.N.[Cl][Pt][Cl] [cis-DDP, cis-diammine-dichloroplatinum (II)] | – | > 1000 | – | – | – | – | IC50 (Walker carcinoma cells; Table 1; single active material, 48 hours; read-out: IC50 cell proliferation): 0.23 µM |
| CCCCCCCCCCCCCCCCSCC(COC)COP(=O)([O-])OCC[N+](C)(C)C (stereo not drawn) [ilmofosin] | 2 | 0.56 | 20 | synergism | – | – | IC50 [1]: 1.06 µg/mL |
| O=c1c(O)c(-c2ccc(O)c(O)c2)oc2cc(O)cc(O)c12 [quercetin, 3,3',4',5,7-pentahydroxyflavone] | – | 25 | 25 | synergism | 23 | 3.8 | – |
| CN[C@@H]1C[C@H]2O[C@@](C)([C@@H]1OC)n1c3ccccc3c3c4c(c5c6ccccc6n2c5c31)C(=O)NC4 [staurosporin] | – | – | – | synergism | 0.4 | 0.004 | – |
| CC/C(=C(\c1ccccc1)c1ccc(OCCN(C)C)cc1)c1ccccc1 [tamoxifen] | – | – | – | synergism | – | – | – |
